Numbers after ± are expanded uncertainties.
Experiment: mn = molality of the nth substance listed, in mol/kg
Details: 101 kPa, Liquid; for speed of sound: Sing-around technique in a fixed-path interferometer; for mass density: Vibrating tube method

CCCCn1cc[n+](C)c1.[I-] [1-butyl-3-methylimidazolium iodide] + O
Details	mass density, 288.15 K [kg/m3]	mass density, 293.15 K [kg/m3]	mass density, 298.15 K [kg/m3]	mass density, 303.15 K [kg/m3]	mass density, 308.15 K [kg/m3]	speed of sound, 288.15 K [m/s]	speed of sound, 293.15 K [m/s]	speed of sound, 298.15 K [m/s]	speed of sound, 303.15 K [m/s]	speed of sound, 308.15 K [m/s]
m1 = 0.0514	1003.51 ± 0.094	1002.58 ± 0.094	1001.37 ± 0.092	999.906 ± 0.092	998.257 ± 0.092	1471.2 ± 0.77	1486.3 ± 0.77	1500 ± 0.77	1511.9 ± 0.78	1522.2 ± 0.78
m1 = 0.1017	1007.71 ± 0.095	1006.74 ± 0.094	1005.46 ± 0.093	1003.96 ± 0.092	1002.28 ± 0.091	1475.6 ± 0.77	1489.8 ± 0.78	1503 ± 0.78	1514.5 ± 0.78	1524.4 ± 0.79
m1 = 0.1497	1011.65 ± 0.095	1010.64 ± 0.094	1009.32 ± 0.093	1007.76 ± 0.093	1006.08 ± 0.092	1479.5 ± 0.78	1493.2 ± 0.78	1505.8 ± 0.79	1516.8 ± 0.79	1526.2 ± 0.79
m1 = 0.1995	1015.69 ± 0.096	1014.61 ± 0.095	1013.26 ± 0.094	1011.7 ± 0.093	1009.95 ± 0.092	1483.3 ± 0.78	1496.4 ± 0.79	1508.5 ± 0.79	1519.1 ± 0.79	1528.1 ± 0.8
m1 = 0.2522	1019.87 ± 0.096	1018.75 ± 0.095	1017.37 ± 0.095	1015.77 ± 0.094	1013.98 ± 0.093	1487.2 ± 0.79	1499.6 ± 0.79	1511.4 ± 0.8	1521.6 ± 0.8	1530.1 ± 0.8
m1 = 0.3025	1023.82 ± 0.098	1022.63 ± 0.097	1021.27 ± 0.097	1019.6 ± 0.095	1017.78 ± 0.095	1491 ± 0.8	1502.7 ± 0.8	1514 ± 0.8	1523.7 ± 0.81	1531.9 ± 0.81
m1 = 0.3477	1027.3 ± 0.099	1026.08 ± 0.097	1024.71 ± 0.097	1023 ± 0.097	1021.14 ± 0.095	1494.2 ± 0.8	1505.2 ± 0.81	1516.1 ± 0.81	1525.5 ± 0.81	1533 ± 0.81
m1 = 0.4036	1031.57 ± 0.1	1030.23 ± 0.099	1028.85 ± 0.099	1027.14 ± 0.098	1025.23 ± 0.097	1498 ± 0.81	1508.5 ± 0.81	1519 ± 0.82	1527.7 ± 0.82	1534.9 ± 0.82
m1 = 0.4508	1035.08 ± 0.1	1033.71 ± 0.1	1032.38 ± 0.1	1030.58 ± 0.1	1028.63 ± 0.099	1501.1 ± 0.82	1511.1 ± 0.82	1521.1 ± 0.82	1529.7 ± 0.82	1536.2 ± 0.82
m1 = 0.5032	1038.95 ± 0.1	1037.5 ± 0.1	1036.15 ± 0.1	1034.41 ± 0.1	1032.4 ± 0.1	1504.9 ± 0.82	1514.1 ± 0.83	1523.7 ± 0.83	1531.8 ± 0.83	1537.6 ± 0.83

CCCCn1cc[n+](C)c1.[Br-] [1-butyl-3-methylimidazolium bromide] + O
Details	mass density, 288.15 K [kg/m3]	mass density, 293.15 K [kg/m3]	mass density, 298.15 K [kg/m3]	mass density, 303.15 K [kg/m3]	mass density, 308.15 K [kg/m3]	speed of sound, 288.15 K [m/s]	speed of sound, 293.15 K [m/s]	speed of sound, 298.15 K [m/s]	speed of sound, 303.15 K [m/s]	speed of sound, 308.15 K [m/s]
m1 = 0.0513	1001.7 ± 0.065	1000.78 ± 0.064	999.601 ± 0.064	998.177 ± 0.064	996.522 ± 0.064	1472.8 ± 0.77	1488.1 ± 0.77	1501.8 ± 0.77	1513.7 ± 0.78	1524 ± 0.78
m1 = 0.1034	1004.29 ± 0.066	1003.33 ± 0.065	1002.13 ± 0.065	1000.67 ± 0.064	998.994 ± 0.064	1478.8 ± 0.77	1493.6 ± 0.78	1506.8 ± 0.78	1518.3 ± 0.78	1528.2 ± 0.79
m1 = 0.1531	1006.73 ± 0.067	1005.72 ± 0.066	1004.51 ± 0.066	1003.02 ± 0.066	1001.34 ± 0.065	1484.5 ± 0.78	1498.7 ± 0.78	1511.5 ± 0.78	1522.5 ± 0.79	1532 ± 0.79
m1 = 0.2012	1009.09 ± 0.069	1008.05 ± 0.068	1006.79 ± 0.067	1005.29 ± 0.067	1003.58 ± 0.066	1489.6 ± 0.78	1503.7 ± 0.79	1516 ± 0.79	1526.6 ± 0.79	1535.7 ± 0.8
m1 = 0.2499	1011.45 ± 0.07	1010.37 ± 0.069	1009.06 ± 0.068	1007.54 ± 0.068	1005.82 ± 0.067	1494.9 ± 0.79	1508.5 ± 0.79	1520.4 ± 0.8	1530.7 ± 0.8	1539.3 ± 0.8
m1 = 0.2995	1013.81 ± 0.071	1012.7 ± 0.07	1011.38 ± 0.07	1009.81 ± 0.069	1008.07 ± 0.069	1500.4 ± 0.8	1513.5 ± 0.8	1524.9 ± 0.8	1534.6 ± 0.8	1543 ± 0.81
m1 = 0.35	1016.21 ± 0.073	1015.02 ± 0.072	1013.64 ± 0.071	1012.1 ± 0.07	1010.34 ± 0.07	1505.5 ± 0.8	1518.3 ± 0.8	1529.3 ± 0.81	1538.7 ± 0.81	1546.7 ± 0.81
m1 = 0.4008	1018.58 ± 0.074	1017.37 ± 0.073	1015.96 ± 0.073	1014.35 ± 0.072	1012.6 ± 0.072	1510.9 ± 0.81	1523 ± 0.81	1533.6 ± 0.81	1542.6 ± 0.82	1550.2 ± 0.82
m1 = 0.4565	1021.19 ± 0.077	1019.89 ± 0.075	1018.45 ± 0.075	1016.8 ± 0.074	1015.05 ± 0.073	1516.4 ± 0.81	1528.1 ± 0.82	1538.2 ± 0.82	1546.8 ± 0.82	1554 ± 0.82
m1 = 0.5012	1023.28 ± 0.079	1021.91 ± 0.077	1020.5 ± 0.076	1018.75 ± 0.076	1017.01 ± 0.075	1520.9 ± 0.82	1532.2 ± 0.82	1542 ± 0.82	1550.2 ± 0.83	1557.1 ± 0.83

CCCCn1cc[n+](C)c1.O=S(=O)([O-])C(F)(F)F [1-butyl-3-methylimidazolium trifluoromethanesulfonate] + O
Details	mass density, 288.15 K [kg/m3]	mass density, 293.15 K [kg/m3]	mass density, 298.15 K [kg/m3]	mass density, 303.15 K [kg/m3]	mass density, 308.15 K [kg/m3]	speed of sound, 288.15 K [m/s]	speed of sound, 293.15 K [m/s]	speed of sound, 298.15 K [m/s]	speed of sound, 303.15 K [m/s]	speed of sound, 308.15 K [m/s]
m1 = 0.051	1002.68 ± 0.083	1001.73 ± 0.082	1000.53 ± 0.081	999.089 ± 0.081	997.44 ± 0.081	1472.8 ± 0.78	1488 ± 0.79	1501.7 ± 0.79	1513.5 ± 0.79	1523.6 ± 0.8
m1 = 0.1023	1006.18 ± 0.088	1005.17 ± 0.087	1003.9 ± 0.086	1002.43 ± 0.085	1000.76 ± 0.085	1478.5 ± 0.81	1493.2 ± 0.81	1506.2 ± 0.82	1517.4 ± 0.82	1527 ± 0.82
m1 = 0.1499	1009.37 ± 0.094	1008.3 ± 0.093	1007 ± 0.092	1005.49 ± 0.091	1003.78 ± 0.091	1483.8 ± 0.84	1497.9 ± 0.84	1510.2 ± 0.85	1520.8 ± 0.85	1529.8 ± 0.85
m1 = 0.1996	1012.64 ± 0.1	1011.5 ± 0.1	1010.17 ± 0.1	1008.6 ± 0.1	1006.87 ± 0.099	1489.1 ± 0.87	1502.4 ± 0.88	1514.2 ± 0.88	1524.5 ± 0.88	1533 ± 0.88
m1 = 0.2496	1015.85 ± 0.11	1014.68 ± 0.11	1013.28 ± 0.11	1011.7 ± 0.11	1009.91 ± 0.11	1494.2 ± 0.91	1507 ± 0.91	1518.1 ± 0.91	1527.6 ± 0.91	1535.6 ± 0.92
m1 = 0.3019	1019.2 ± 0.13	1017.92 ± 0.12	1016.52 ± 0.12	1014.86 ± 0.12	1013.02 ± 0.12	1499.2 ± 0.94	1511.3 ± 0.95	1521.8 ± 0.95	1530.8 ± 0.95	1538.2 ± 0.95
m1 = 0.3489	1022.13 ± 0.14	1020.78 ± 0.14	1019.36 ± 0.14	1017.64 ± 0.14	1015.77 ± 0.13	1503.5 ± 0.98	1515 ± 0.98	1525 ± 0.98	1533.5 ± 0.99	1540.5 ± 0.99
m1 = 0.4034	1025.46 ± 0.15	1024.1 ± 0.15	1022.57 ± 0.15	1020.8 ± 0.15	1018.88 ± 0.15	1508.2 ± 1	1519 ± 1	1528.4 ± 1	1536.3 ± 1	1542.8 ± 1
m1 = 0.4532	1028.45 ± 0.17	1027.06 ± 0.17	1025.5 ± 0.17	1023.65 ± 0.17	1021.69 ± 0.17	1512.3 ± 1.1	1522.7 ± 1.1	1531.5 ± 1.1	1538.9 ± 1.1	1544.9 ± 1.1
m1 = 0.5045	1031.5 ± 0.19	1030.04 ± 0.19	1028.46 ± 0.19	1026.57 ± 0.19	1024.5 ± 0.18	1517 ± 1.1	1526.9 ± 1.1	1534.1 ± 1.1	1541 ± 1.1	1546.6 ± 1.1

From the NIST ThermoML archive (doi:10.1016/j.jct.2012.03.025)
